Measurements as given in patent publication US8217013B2, “Polyene diester antibiotics” (priority 2007, dated 2012).
Read-outs that look alike come from different tables or passages of the source.

Columns and labels:
Candida albicans = experiment: Test of antibacterial activity in vitro (bacteria-inhibition zone); format: cell-based; conditions: Candida albicans; for zone of inhibition at 1.4 µg/mL: 1.4 μg/ml after conversion, serum added (40% defibered sheep serum); for zone of inhibition at 2.8 µg/mL: 2.8 μg/ml after conversion, no serum
Saccharomyces cerevisiae = experiment: as above; format: cell-based; conditions: Saccharomyces cerevisiae; for zone of inhibition at 1.4 µg/mL: 1.4 μg/ml after conversion, serum added (40% defibered sheep serum); for zone of inhibition at 2.8 µg/mL: 2.8 μg/ml after conversion, no serum
Candida mycoderma = experiment: as above; format: cell-based; conditions: for zone of inhibition at 1.4 µg/mL: 1.4 μg/ml after conversion, serum added (40% defibered sheep serum); for zone of inhibition at 2.8 µg/mL: 2.8 μg/ml after conversion, no serum
most of the fungal = conditions: for most of the fungal; cited from earlier work
[1] = study by Rutgers University; cited from earlier work
esterase = conditions: cited from earlier work
[2] = 0 h, read-out: diameter of the bacteria-inhibition zone, Candida albicans 0 h
[3] = 6 h, read-out: diameter of the bacteria-inhibition zone, Candida albicans 6 h
[4] = 24 h, read-out: diameter of the bacteria-inhibition zone, Candida albicans 24 h
[5] = 48 h, read-out: diameter of the bacteria-inhibition zone, Candida albicans 48 h
[6] = 0 h, read-out: diameter of the bacteria-inhibition zone, Saccharomyces cerevisiae 0 h
[7] = 6 h, read-out: diameter of the bacteria-inhibition zone, Saccharomyces cerevisiae 6 h
[8] = 24 h, read-out: diameter of the bacteria-inhibition zone, Saccharomyces cerevisiae 24 h
[9] = 48 h, read-out: diameter of the bacteria-inhibition zone, Saccharomyces cerevisiae 48 h
[10] = 0 h, read-out: diameter of the bacteria-inhibition zone, Candida mycoderma 0 h
[11] = 6 h, read-out: diameter of the bacteria-inhibition zone, Candida mycoderma 6 h
[12] = 24 h, read-out: diameter of the bacteria-inhibition zone, Candida mycoderma 24 h
[13] = 48 h, read-out: diameter of the bacteria-inhibition zone, Candida mycoderma 48 h

Compound C[C@@H]1[C@H](O)[C@@H](C)/C=C/C=C/C=C/C=C/C=C/C=C/C=C/[C@H](O[C@@H]2O[C@H](C)[C@@H](O)[C@H](N)[C@@H]2O)C[C@@H]2O[C@](O)(C[C@@H](O)C[C@@H](O)[C@H](O)CC[C@@H](O)C[C@@H](O)CC(=O)O[C@H]1C)C[C@H](O)[C@H]2C(=O)O [amphotericin B, reference compound] has a zone of inhibition at 1.4 µg/mL (Candida albicans; [2]) of 12 to 14 mm, a zone of inhibition at 2.8 µg/mL (Candida albicans; [2]) of 14 to 16 mm and a zone of inhibition at 1.4 µg/mL (Candida albicans; [3]) of 12 to 14 mm. For the same compound, the zone of inhibition at 2.8 µg/mL (Candida albicans; [3]) was 14 to 16 mm, the zone of inhibition at 1.4 µg/mL (Candida albicans; [4]) was 12 to 14 mm and the zone of inhibition at 2.8 µg/mL (Candida albicans; [4]) was 14 to 16 mm. For the same compound, the zone of inhibition at 1.4 µg/mL (Candida albicans; [5]) was 12 to 14 mm, the zone of inhibition at 2.8 µg/mL (Candida albicans; [5]) was 14 to 16 mm and the zone of inhibition at 1.4 µg/mL (Saccharomyces cerevisiae; [6]) was 14 to 16 mm. It also gave a zone of inhibition at 2.8 µg/mL (Saccharomyces cerevisiae; [6]) of 16 to 18 mm, a zone of inhibition at 1.4 µg/mL (Saccharomyces cerevisiae; [7]) of 14 to 16 mm and a zone of inhibition at 2.8 µg/mL (Saccharomyces cerevisiae; [7]) of 16 to 18 mm. It also gave a zone of inhibition at 1.4 µg/mL (Saccharomyces cerevisiae; [8]) of 14 to 16 mm, a zone of inhibition at 2.8 µg/mL (Saccharomyces cerevisiae; [8]) of 16 to 18 mm and a zone of inhibition at 1.4 µg/mL (Saccharomyces cerevisiae; [9]) of 14 to 16 mm. The zone of inhibition at 2.8 µg/mL (Saccharomyces cerevisiae; [9]) was 16 to 18 mm, the zone of inhibition at 1.4 µg/mL (Candida mycoderma; [10]) was 12 to 14 mm and the zone of inhibition at 2.8 µg/mL (Candida mycoderma; [10]) was 14 to 16 mm. For the same compound, the zone of inhibition at 1.4 µg/mL (Candida mycoderma; [11]) was 12 to 14 mm, the zone of inhibition at 2.8 µg/mL (Candida mycoderma; [11]) was 14 to 16 mm and the zone of inhibition at 1.4 µg/mL (Candida mycoderma; [12]) was 12 to 14 mm. It also gave a zone of inhibition at 2.8 µg/mL (Candida mycoderma; [12]) of 14 to 16 mm, a zone of inhibition at 1.4 µg/mL (Candida mycoderma; [13]) of 12 to 14 mm and a zone of inhibition at 2.8 µg/mL (Candida mycoderma; [13]) of 14 to 16 mm. The “minimum inhibitory concentration (MIC)” value (most of the fungal) was 0.02 to 1 µg/mL.
In the case of COC(=O)[C@H]1[C@@H]2C[C@@H](O[C@@H]3O[C@H](C)[C@@H](O)[C@H](N)[C@@H]3O)/C=C/C=C/C=C/C=C/C=C/C=C/C=C/[C@H](C)[C@@H](O)[C@@H](C)[C@H](C)OC(=O)C[C@H](O)C[C@H](O)CC[C@@H](O)[C@H](O)C[C@H](O)C[C@](O)(C[C@@H]1O)O2 [amphotericin methyl ester], the toxicity [1] is given as “toxicity was lowered” and the “hydrolysis by esterase in vivo” value (esterase) is given as “cannot be hydrolyzed by esterase in vivo”.
